The NIST ThermoML archive (doi:10.1021/je800463k)

Assay: mn = molality of the nth substance listed, in mol/kg
Conditions: 101 kPa, Liquid; for electrical conductivity: Frequency=0.001 MHz, Alternating current cell with electrodes; for speed of sound: Frequency=2 MHz; for mass density: Pycnometric method

CC(=O)[O-].CC(=O)[O-].[Mg+2] [magnesium acetate] + CO
Conditions | electrical conductivity [S/m] | mass density [kg/m3] | speed of sound [m/s] | viscosity [mPa·s]
288.15 K, m1 = 0.0059 | – | – | 1135.7 | –
288.15 K, m1 = 0.0093 | – | – | 1136.1 | –
288.15 K, m1 = 0.014 | – | – | – | 0.6458
288.15 K, m1 = 0.018 | – | – | 1137.4 | 0.6478
288.15 K, m1 = 0.0339 | – | – | – | 0.6606
288.15 K, m1 = 0.053 | 0.0969 | – | 1138.1 | –
288.15 K, m1 = 0.0646 | 0.1033 | – | – | 0.6743
288.15 K, m1 = 0.0855 | 0.1114 | – | 1139.7 | –
288.15 K, m1 = 0.1012 | – | – | – | 0.7063
288.15 K, m1 = 0.1024 | 0.1227 | – | 1142.7 | –
288.15 K, m1 = 0.13 | – | – | – | 0.7206
288.15 K, m1 = 0.1402 | 0.139 | – | 1144.3 | 0.7286
288.15 K, m1 = 0.1455 | 0.1428 | – | 1141.6 | –
288.15 K, m1 = 0.17 | – | – | – | 0.7465
288.15 K, m1 = 0.1837 | 0.1496 | – | 1143.8 | –
288.15 K, m1 = 0.2003 | – | – | – | 0.7639
288.15 K, m1 = 0.2192 | – | – | 1147.5 | –
288.15 K, m1 = 0.2422 | 0.1673 | – | 1146.4 | 0.7865
288.15 K, m1 = 0.2453 | – | – | – | 0.7929
288.15 K, m1 = 0.2889 | 0.1692 | – | 1147 | 0.8205
288.15 K, m1 = 0.3042 | – | – | 1149.4 | –
293.15 K, m1 = 0.0059 | 0.0349 | – | 1119 | –
293.15 K, m1 = 0.0093 | 0.0575 | – | 1118.9 | –
293.15 K, m1 = 0.014 | – | – | – | 0.6
293.15 K, m1 = 0.018 | 0.0649 | – | 1120.9 | 0.6022
293.15 K, m1 = 0.0339 | 0.0843 | – | – | 0.6132
293.15 K, m1 = 0.053 | 0.0985 | – | 1121.1 | –
293.15 K, m1 = 0.0646 | 0.1055 | – | – | 0.6249
293.15 K, m1 = 0.0855 | 0.1149 | – | 1122.8 | –
293.15 K, m1 = 0.1012 | – | – | – | 0.6535
293.15 K, m1 = 0.1024 | 0.1258 | – | 1126 | –
293.15 K, m1 = 0.13 | – | – | – | 0.666
293.15 K, m1 = 0.1402 | 0.1426 | – | 1128.4 | 0.6731
293.15 K, m1 = 0.1455 | 0.1463 | – | 1124.4 | –
293.15 K, m1 = 0.17 | – | – | – | 0.6902
293.15 K, m1 = 0.1837 | 0.1536 | – | 1127.3 | –
293.15 K, m1 = 0.2003 | – | – | – | 0.7039
293.15 K, m1 = 0.2192 | – | – | 1130.4 | –
293.15 K, m1 = 0.2422 | 0.1693 | – | 1129.6 | 0.7255
293.15 K, m1 = 0.2453 | – | – | – | 0.7305
293.15 K, m1 = 0.2889 | 0.1735 | – | 1131.7 | 0.7548
293.15 K, m1 = 0.3042 | – | – | 1132.6 | –
296.65 K, m1 = 0.1112 | – | 798.51 | – | –
297.55 K, m1 = 0.2192 | – | 803.53 | – | –
298.15 K, m1 = 0.0059 | 0.0355 | – | 1102.5 | –
298.15 K, m1 = 0.0093 | 0.058 | – | 1102 | –
298.15 K, m1 = 0.014 | – | – | – | 0.5583
298.15 K, m1 = 0.018 | 0.0656 | – | 1103.5 | 0.5605
298.15 K, m1 = 0.0339 | 0.0856 | – | – | 0.5703
298.15 K, m1 = 0.053 | 0.1 | – | 1104.6 | –
298.15 K, m1 = 0.0646 | 0.108 | – | – | 0.5802
298.15 K, m1 = 0.0855 | 0.1183 | – | 1106.7 | –
298.15 K, m1 = 0.1012 | – | – | – | 0.6059
298.15 K, m1 = 0.1024 | 0.1284 | – | 1109.8 | –
298.15 K, m1 = 0.13 | – | – | – | 0.617
298.15 K, m1 = 0.1402 | 0.1458 | – | 1111.6 | 0.6234
298.15 K, m1 = 0.1455 | 0.1485 | – | 1108.4 | –
298.15 K, m1 = 0.17 | – | – | – | 0.6396
298.15 K, m1 = 0.1837 | 0.1578 | – | 1110.9 | –
298.15 K, m1 = 0.2003 | – | – | – | 0.6529
298.15 K, m1 = 0.2192 | – | – | 1113.4 | –
298.15 K, m1 = 0.2422 | 0.1717 | – | 1112.7 | 0.6701
298.15 K, m1 = 0.2453 | – | – | – | 0.6746
298.15 K, m1 = 0.2889 | 0.1776 | – | 1115.2 | 0.6956
298.15 K, m1 = 0.3042 | – | – | 1116.1 | –
298.5 K, m1 = 0.0646 | – | 793.38 | – | –
299 K, m1 = 0.0339 | – | 790.63 | – | –
299.1 K, m1 = 0.014 | – | 788.94 | – | –
299.25 K, m1 = 0.1798 | – | 800.6 | – | –
299.3 K, m1 = 0.2192 | – | 801.81 | – | –
299.35 K, m1 = 0.1112 | – | 795.95 | – | –
